Experimental data from patent US20250230193A1, “CYCLIC COMPOUND HAVING SELECTIVE KRAS INHIBITORY EFFECT ON HRAS AND NRAS” (CHUGAI SEIYAKU KABUSHIKI KAISHA, priority 2022, published 2025).
Where a SMILES comes first, the peptide text is derived from it. Bridges are numbered along the chain shown (N, C = ends). [ ]: non-standard residue; d: D form. The star is where a group is joined. hPhe(3-Cl-4-CF3) = N[C@@H](CCc1ccc(C(F)(F)F)c(Cl)c1)C(=O)O; NPrPhe(4-CF3) = CCCN[C@@H](Cc1ccc(C(F)(F)F)cc1)C(=O)O; NMePhe(4-Me) = CN[C@@H](Cc1ccc(C)cc1)C(=O)O; NMeGly(cPent) = CN[C@H](C(=O)O)C1CCCC1; Hyp = O=C(O)[C@@H]1C[C@@H](O)CN1; NMeD = CN[C@@H](CC(=O)O)C(=O)O; NMeL = CN[C@@H](CC(C)C)C(=O)O; Morpholide = C1CN(*)CCO1; Ac5c = NC1(C(=O)O)CCCC1; Aze = O=C(O)[C@@H]1CCN1; NEtG = CCNCC(=O)O; Sar = CNCC(=O)O

Key:
[1] = target: GDP-bound HRAS wild-type protein (Homo sapiens, UniProt P01112); assay: Binding to HRAS by surface plasmon resonance (SPR), Single Cycle Kinetics; settings: for HRAS/KRAS (ratio of KD value with respect to HRAS to KD value with respect to KRAS): GDP-bound HRAS wild-type vs GDP-bound KRAS wild-type
[2] = target: GDP-bound NRAS wild-type protein (Homo sapiens, UniProt P01111); assay: Binding to NRAS by surface plasmon resonance (SPR), Single Cycle Kinetics; settings: for NRAS/KRAS (ratio of KD value with respect to NRAS to KD value with respect to KRAS): GDP-bound NRAS wild-type vs GDP-bound KRAS wild-type
[3] = KD ratio HRAS/KRAS, SPR, GDP-bound wild-type proteins
[4] = KD ratio NRAS/KRAS, SPR, GDP-bound wild-type proteins

Chain of GDP-bound HRAS wild-type protein (P01112 whole entry): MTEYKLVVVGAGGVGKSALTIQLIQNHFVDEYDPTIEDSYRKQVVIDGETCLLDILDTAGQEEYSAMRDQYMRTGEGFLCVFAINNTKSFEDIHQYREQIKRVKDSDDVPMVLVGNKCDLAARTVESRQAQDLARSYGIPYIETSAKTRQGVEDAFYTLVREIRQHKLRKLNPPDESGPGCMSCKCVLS
Chain of GDP-bound NRAS wild-type protein (P01111 whole entry): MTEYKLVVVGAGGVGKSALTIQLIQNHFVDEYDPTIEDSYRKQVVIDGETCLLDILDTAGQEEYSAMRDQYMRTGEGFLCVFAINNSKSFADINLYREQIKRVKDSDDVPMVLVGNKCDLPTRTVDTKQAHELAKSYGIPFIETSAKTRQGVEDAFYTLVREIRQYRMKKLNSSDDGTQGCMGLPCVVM

CCCO[C@@H]1C[C@H]2C(=O)NC3(CC(C)(C)C3)C(=O)N(C)[C@@H](C3CCCC3)C(=O)N(C)[C@H](C(=O)N(C)CC)CC(=O)N(C)[C@H]3CCCc4ccc(cc4)C[C@@H](C(=O)N(C)CC(=O)N[C@@H](CCc4ccc(C(F)(F)F)c(OC)c4)C(=O)N2C1)N1CC/C=C\C[C@@H](C1=O)N(C)C(=O)CN(C)C(=O)[C@H]([C@@H](C)CC)NC3=O [PP3083]
HRAS/KRAS (ratio of KD value with respect to GDP-bound HRAS wild-type protein to KD value with respect to KRAS) [1, 3]: A (a compound having 10 or more and less than 20 is denoted as A)
NRAS/KRAS (ratio of KD value with respect to GDP-bound NRAS wild-type protein to KD value with respect to KRAS) [2, 4]: A (a compound having 10 or more and less than 20 is denoted as A)

CC[C@H](C)[C@@H]1NC(=O)[C@H](CC(C)C)N(C)C(=O)C[C@@H](C(=O)N2CCOCC2)N(C)C(=O)[C@H](C2CCCC2)N(C)C(=O)C2(CCCC2)NC(=O)[C@@H]2CCCN2C(=O)[C@H](CCc2ccc(C(F)(F)F)c(Cl)c2)NC(=O)CN(C)C(=O)[C@H](Cc2ccc(C)cc2)N(C)C(=O)CN(CC)C(=O)CN(C)C1=O [PP0019] ([NMeL]I[Sar][NEtG][NMePhe(4-Me)][Sar][hPhe(3-Cl-4-CF3)]P[Ac5c][NMeGly(cPent)][NMeD]-Morpholide; lactam N-11)
HRAS/KRAS (ratio of KD for GDP-bound HRAS wild-type to KD for KRAS) ([1]; KD ratio HRAS/KRAS, SPR): C (A compound having a KD ratio of 0.1 or more and less than 3 is denoted as C)
NRAS/KRAS (ratio of KD for GDP-bound NRAS wild-type to KD for KRAS) ([2]; KD ratio NRAS/KRAS, SPR): C (A compound having a KD ratio of 0.1 or more and less than 3 is denoted as C)

CCO[C@@H]1C[C@H]2C(=O)NC3(CCC3)C(=O)N(C)[C@@H](C3CCCC3)C(=O)N(C)[C@H](C(=O)N(C)C)CC(=O)N(C)[C@@H](CC3CCC3)C(=O)N[C@@H]([C@@H](C)CC)C(=O)N(C)CC(=O)N(C)[C@H]3CCCCCN(C3=O)[C@@H](Cc3ccc(C(F)(F)F)cc3)C(=O)N(C)CC(=O)N[C@@H](CCc3cc(F)c(C(F)(F)F)c(F)c3)C(=O)N2C1 [PP0668]
HRAS/KRAS (ratio of KD value with respect to GDP-bound HRAS wild-type protein to KD value with respect to KRAS) ([1]; KD ratio HRAS/KRAS, SPR): B (a compound having 3 or more and less than 10 is denoted as B)
NRAS/KRAS (ratio of KD value with respect to GDP-bound NRAS wild-type protein to KD value with respect to KRAS) ([2]; KD ratio NRAS/KRAS, SPR): B (a compound having 3 or more and less than 10 is denoted as B)

CCC[C@H]1C(=O)N[C@@H]([C@@H](C)CC)C(=O)N2CCC[C@H]2C(=O)N(C)[C@H]2C/C=C\CCN(C2=O)[C@@H](Cc2ccc(C)cc2)C(=O)N(C)CC(=O)N[C@@H](CCc2ccc(Cl)c(Cl)c2)C(=O)N2C[C@H](OC(C)C)C[C@H]2C(=O)NC2(CC(C)(C)C2)C(=O)N(C)[C@@H](C(CC)CC)C(=O)N(C)[C@H](C(=O)N(C)C)CC(=O)N1C [PP2641]
HRAS/KRAS (ratio of KD value with respect to GDP-bound HRAS wild-type protein to KD value with respect to KRAS) ([1]; KD ratio HRAS/KRAS, class symbols): A (a compound having 10 or more and less than 20 is denoted as A)
NRAS/KRAS (ratio of KD value with respect to GDP-bound NRAS wild-type protein to KD value with respect to KRAS) ([2]; KD ratio NRAS/KRAS, class symbols): AA (a compound having 20 or more is denoted as AA)

CCC[C@H]1C(=O)N[C@@H]([C@@H](C)CC)C(=O)N(C)CC(=O)N(C)[C@H]2C/C=C\CCN(C2=O)[C@@H](Cc2ccc(C(F)(F)F)cc2)C(=O)N(C)CC(=O)N[C@@H](CCc2ccc(C(F)(F)F)c(Cl)c2)C(=O)N2C[C@H](OCC)C[C@H]2C(=O)NC2(CC(C)(C)C2)C(=O)N(C)[C@@H](CC(C)C)C(=O)N(C)[C@H](C(=O)N(C)C)CC(=O)N1C [PP2977]
HRAS/KRAS (ratio of KD value with respect to GDP-bound HRAS wild-type protein to KD value with respect to KRAS) [1, 3]: A (a compound having 10 or more and less than 20 is denoted as A)
NRAS/KRAS (ratio of KD value with respect to GDP-bound NRAS wild-type protein to KD value with respect to KRAS) [2, 4]: A (a compound having 10 or more and less than 20 is denoted as A)

CCCN1C(=O)CN(C)C(=O)[C@@H]2CCN2C(=O)[C@H]([C@@H](C)CC)NC(=O)[C@H](CC(C)C)N(C)C(=O)C[C@@H](C(=O)N(C)C)N(C)C(=O)[C@H](C2CCCC2)N(C)C(=O)C2(CCCC2)NC(=O)[C@@H]2C[C@@H](OCC)CN2C(=O)[C@H](CCc2ccc(C(F)(F)F)c(Cl)c2)NC(=O)CN(C)C(=O)[C@@H]1Cc1ccc(C(F)(F)F)cc1 [PP0433] ([NMeL]I[Aze][Sar][NPrPhe(4-CF3)][Sar][hPhe(3-Cl-4-CF3)][Hyp](Et)[Ac5c][NMeGly(cPent)][NMeD]-NMe2; lactam N-11)
HRAS/KRAS (ratio of KD value with respect to GDP-bound HRAS wild-type protein to KD value with respect to KRAS) ([1]; KD ratio HRAS/KRAS, SPR): B (a compound having 3 or more and less than 10 is denoted as B)
NRAS/KRAS (ratio of KD value with respect to GDP-bound NRAS wild-type protein to KD value with respect to KRAS) ([2]; KD ratio NRAS/KRAS, SPR): B (a compound having 3 or more and less than 10 is denoted as B)

CCC[C@H]1C(=O)N[C@@H]([C@@H](C)CC)C(=O)N2CCC[C@H]2C(=O)N(C)[C@H]2C/C=C\CCN(C2=O)[C@@H](Cc2ccc(C)cc2)C(=O)N(C)CC(=O)N[C@@H](CCc2ccc(C(F)(F)F)c(OC)c2)C(=O)N2C[C@H](OCC)C[C@H]2C(=O)N(C)C2(CCC2)C(=O)N(C)[C@@H](C2CCCC2)C(=O)N(C)[C@H](C(=O)N(C)C)CC(=O)N1C [PP2332]
HRAS/KRAS (ratio of KD value with respect to HRAS to KD value with respect to KRAS) ([1]; SPR): B (a compound having 3 or more and less than 10 is denoted as B)
NRAS/KRAS (ratio of KD value with respect to NRAS to KD value with respect to KRAS) ([2]; SPR): A (a compound having 10 or more and less than 20 is denoted as A)

CCO[C@@H]1C[C@H]2C(=O)NC3(CC(C)(C)C3)C(=O)N(C)[C@@H](C3CCCC3)C(=O)N(C)[C@H](C(=O)N(C)CC)CC(=O)N(C)[C@H]3CCCCCc4ccc(cc4)C[C@@H](C(=O)N(C)CC(=O)N[C@@H](CCc4ccc(C(F)(F)F)c(OC)c4)C(=O)N2C1)N1CC/C=C\C[C@@H](C1=O)N(C)C(=O)CN(C)C(=O)[C@H]([C@@H](C)CC)NC3=O [PP2259]
HRAS/KRAS (ratio of KD value with respect to HRAS to KD value with respect to KRAS) ([1]; SPR): B (a compound having 3 or more and less than 10 is denoted as B)
NRAS/KRAS (ratio of KD value with respect to NRAS to KD value with respect to KRAS) ([2]; SPR): A (a compound having 10 or more and less than 20 is denoted as A)
